Laboratory results reported in patent US20240024251A1, “POLYSACCHARIDE ENCAPSULATED OXYGEN NANOBUBBLES” (THE BOARD OF TRUSTEES OF THE UNIVERSITY OF ILLINOIS, priority 2020, published 2024).

Tested on: R-28 and ARPE-19 cell line
Details: rat (R-28), human (ARPE-19), 48 h
Experimental: The biosafety of DONBs and excipients used in the formulation was evaluated on retinal precursor cells R-28 and retinal pigment epithelial cells (ARPE-19). The suspensions of the following cell line (100 μL, −60,000 cells/mL) were seeded into each well of a 96-well plate and cultured overnight. The cells were cultured for 24 h in the dark.
Excipient toxicity studies on ARPE-19 and R28 cell line. Cell viability was conducted with ARPE-19 and R28 cell lines, in response to treatment with nanobubble excipients, using the [3-(4, 5-dimethylthiazol-2-yl)-2, 5-diphenyl tetrazolium bromide](MTT) assay. The MTT reagent (Cat no. M6494, Thermo Fisher Scientific) was prepared by dissolving 5 mg of MTT per 1 ml of phosphate-buffered saline (Cat no. 21-040-CV, Corning), filter sterilized using a 0.22 μm filter, and stored in dark at 4° C. Yellow MTT is reduced to purple formazan in the mitochondria of living cells. Cells were grown to 80-90% confluence in a T-25 flask, dissociated using trypsin, and seeded into a 96-well plate at a density of 10000 cells per well. […] The absorbance was measured at 590 nm with a reference filter of 620 nm.

**Q.** How did the “excipient concentration producing some toxic effect on cell viability” value turn out when `OC[C@H]1O[C@H](O[C@H]2O[C@H](CO)[C@@H](O)[C@H](O)[C@H]2O)[C@H](O)[C@@H](O)[C@@H]1O` [Trehalose, D-(+)-Trehalose dihydrate] was run?
**A.** 0.6 to 0.7 mg
